Source: US20230081426A1, “COMPOUNDS AND METHODS FOR KRAS MODULATION AND INDICATIONS THEREFOR” (Plexxikon Inc., priority 2020, published 2023)

How the values were obtained:
[1] = biological target: T1, G12V-mutant human KRAS (amino acid residues 1-188) (Homo sapiens, UniProt P01116, G12V); test: KRAS Binding Competition Assay (AlphaScreen; biotinylated KRpep-2d analogue), G12V; conditions: geometric mean, read-out: KRAS GMean IC50 (uM) MUTATION: G12V
T1 construct: G12V-mutant human KRAS (amino acid residues 1-188) with FLAG tag was purified from E. coli; made in house; host or cells: E. coli

[2] = biological target: T2, G12D-mutant human KRAS (amino acid residues 1-188) (Homo sapiens, UniProt P01116, G12D); test: KRAS Binding Disruption Assay (AlphaScreen; biotinylated KRpep-2d analogue or RAF1-RBD), G12D; conditions: KRAS G12D; geometric mean; read-out: KRAS GMean IC50 (uM) MUTATION: G12D
T2 construct: G12D or G12C-mutant human KRAS (amino acid residues 1-188) with FLAG tag; made in house; host or cells: E. coli
Procedure, shortened: (§1)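 Compounds are titrated against 5-20 nM mutant KRAS and 5-20 nM of either a biotinylated KRpep-2d analogue or RAF1-RBD, incubated 1 h at 25° C. Disruption is detected as reduced Alpha signal after 1 h with donor and acceptor beads at 10 μg/mL.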

[3] = biological target: T3, G12C-mutant human KRAS (amino acid residues 1-188) (Homo sapiens, UniProt P01116, G12C); test: KRAS Binding Disruption Assay (AlphaScreen; biotinylated KRpep-2d analogue or RAF1-RBD), G12C; conditions: geometric mean, read-out: KRAS GMean IC50 (uM) MUTATION: G12C
T3 construct: G12D or G12C-mutant human KRAS (amino acid residues 1-188) with FLAG tag; made in house; host or cells: E. coli
Procedure, shortened: as §1

| IC50 [1] | IC50 [2] | IC50 [3] | Structure (SMILES) |
| --- | --- | --- | --- |
| 0.0001 to 10 µM | 0.0001 to 10 µM | 10 to 100 µM | CN1CCC[C@H]1COc1nc(N2C[C@H]3CC[C@@H](C2)N3)c2cc(C(=O)O)c(-c3cc(O)cc4ccccc34)c(F)c2n1 [P-0024, 4-(3,8-Diazabicyclo[3.2.1]octan-3-yl)-8-fluoro-7-(3-hydroxy-1-naphthyl)-2-[[(2S)-1-methylpyrrolidin-2-yl]methoxy]quinazoline-6-carboxylic acid] |
| 0.0001 to 10 µM | 0.0001 to 10 µM | 0.0001 to 10 µM | CN1CCC[C@H]1COc1nc(N2C[C@H]3CC[C@@H](C2)N3)c2cc(C#N)c(-c3cc(O)cc4ccccc34)c(F)c2n1 [P-0021, 4-((1R,5S)-3,8-diazabicyclo[3.2.1]octan-3-yl)-8-fluoro-7-(3-hydroxynaphthalen-1-yl)-2-(((S)-1-methylpyrrolidin-2-yl)methoxy)quinazoline-6-carbonitrile] |
| 10 to 100 µM | 0.0001 to 10 µM | 0.0001 to 10 µM | CN1CCN(CCCC(=O)N2[C@@H]3CC[C@H]2CN(c2nc(OC[C@@H]4CCCN4C)nc4cc(-c5cc(O)cc6ccccc56)ccc24)C3)CC1 [P-0119, 1-((1R,5S)-3-(7-(3-hydroxynaphthalen-1-yl)-2-(((S)-1-methylpyrrolidin-2-yl)methoxy)quinazolin-4-yl)-3,8-diazabicyclo[3.2.1]octan-8-yl)-4-(4-methylpiperazin-1-yl)butan-1-one] |
| 0.0001 to 10 µM | 0.0001 to 10 µM | 0.0001 to 10 µM | O=C(Nc1cn[nH]c1)N1[C@@H]2CC[C@H]1CN(c1nc(OCC34CCCN3CCC4)nc3cc(-c4cc(O)cc5ccccc45)ccc13)C2 [P-0126, (1R,5S)-3-(7-(3-hydroxynaphthalen-1-yl)-2-((tetrahydro-1H-pyrrolizin-7a(5H)-yl)methoxy)quinazolin-4-yl)-N-(1H-pyrazol-4-yl)-3,8-diazabicyclo[3.2.1]octane-8-carboxamide] |
| 0.0001 to 10 µM | 0.0001 to 10 µM | 0.0001 to 10 µM | CN1CCC[C@H]1COc1nc(N2C[C@H]3CC[C@@H](C2)N3C(N)=O)c2ccc(-c3cc(O)cc4ccccc34)c(F)c2n1 [P-0103, (1R,5S)-3-(8-fluoro-7-(3-hydroxynaphthalen-1-yl)-2-(((S)-1-methylpyrrolidin-2-yl)methoxy)quinazolin-4-yl)-3,8-diazabicyclo[3.2.1]octane-8-carboxamide] |
| 0.0001 to 10 µM | 0.0001 to 10 µM | 0.0001 to 10 µM | Cn1cc(NC(=O)N2[C@@H]3CC[C@H]2CN(c2nc(OCC45CCCN4CCC5)nc4cc(-c5cc(O)cc6ccccc56)ccc24)C3)cn1 [P-0128, (1R,5S)-3-(7-(3-hydroxynaphthalen-1-yl)-2-((tetrahydro-1H-pyrrolizin-7a(5H)-yl)methoxy)quinazolin-4-yl)-N-(1-methyl-1H-pyrazol-4-yl)-3,8-diazabicyclo[3.2.1]octane-8-carboxamide] |
| 0.0001 to 10 µM | 0.0001 to 10 µM | 0.0001 to 10 µM | CN(C)CC(=O)N1[C@@H]2CC[C@H]1CN(c1nc(OCC34CCCN3CCC4)nc3cc(-c4cc(O)cc5ccccc45)ccc13)C2 [P-0066, 2-(dimethylamino)-1-((1R,5S)-3-(7-(3-hydroxynaphthalen-1-yl)-2-((tetrahydro-1H-pyrrolizin-7a(5H)-yl)methoxy)quinazolin-4-yl)-3,8-diazabicyclo[3.2.1]octan-8-yl)ethan-1-one] |
| 0.0001 to 10 µM | 0.0001 to 10 µM | 0.0001 to 10 µM | CO[C@@H]1C[C@@H](COc2nc(N3C[C@H]4CC[C@@H](C3)N4)c3ccc(-c4cc(O)cc5ccccc45)cc3n2)N(C)C1 [P-0060, 4-(4-((1R,5S)-3,8-diazabicyclo[3.2.1]octan-3-yl)-2-(((2S,4R)-4-methoxy-1-methylpyrrolidin-2-yl)methoxy)quinazolin-7-yl)naphthalen-2-ol] |
| 0.0001 to 10 µM | 0.0001 to 10 µM | 0.0001 to 10 µM | C=CC(=O)N1[C@@H]2CC[C@H]1CN(c1nc(OC[C@@]34CCCN3C[C@H](F)C4)nc3c(F)c(-c4cc(O)cc5cccc(Cl)c45)ccc13)C2 [P-0502, 1-((1R,5S)-3-(7-(8-chloro-3-hydroxynaphthalen-1-yl)-8-fluoro-2-(((2R,7aS)-2-fluorotetrahydro-1H-pyrrolizin-7a(5H)-yl)methoxy)quinazolin-4-yl)-3,8-diazabicyclo[3.2.1]octan-8-yl)prop-2-en-1-one] |

More lines, now with the values behind:

| Structure (SMILES) | IC50 [1] | IC50 [2] | IC50 [3] |
| --- | --- | --- | --- |
| NC(=O)N1[C@@H]2CC[C@H]1CN(c1nc(OCC34CCCN3CCC4)nc3cc(-c4cc(O)cc5ccccc45)ccc13)C2 [P-0067, (1R,5S)-3-(7-(3-hydroxynaphthalen-1-yl)-2-((tetrahydro-1H-pyrrolizin-7a(5H)-yl)methoxy)quinazolin-4-yl)-3,8-diazabicyclo[3.2.1]octane-8-carboxamide] | 0.0001 to 10 µM | 0.0001 to 10 µM | 0.0001 to 10 µM |
| Cc1cccc2cc(O)cc(-c3c(F)cc4c(N5C[C@H]6CC[C@@H](C5)N6)nc(OCC56CCCN5CCC6)nc4c3F)c12 [P-0088, 4-(4-((1R,5S)-3,8-diazabicyclo[3.2.1]octan-3-yl)-6,8-difluoro-2-((tetrahydro-1H-pyrrolizin-7a(5H)-yl)methoxy)quinazolin-7-yl)-5-methylnaphthalen-2-ol] | 0.0001 to 10 µM | 0.0001 to 10 µM | 0.0001 to 10 µM |
| CN1CCC[C@H]1COc1nc(N2C[C@H]3CC[C@@H](C2)N3)c2ccc(-c3cc(O)cc4ccccc34)c(F)c2n1 [P-0044, 4-(4-((1R,5S)-3,8-diazabicyclo[3.2.1]octan-3-yl)-8-fluoro-2-(((S)-1-methylpyrrolidin-2-yl)methoxy)quinazolin-7-yl)naphthalen-2-ol] | 0.0001 to 10 µM | 0.0001 to 10 µM | 0.0001 to 10 µM |
| O=C(O)CCC(=O)N1[C@@H]2CC[C@H]1CN(c1nc(OCC34CCCN3CCC4)nc3cc(-c4cc(O)cc5ccccc45)ccc13)C2 [P-0064, 4-((1R,5S)-3-(7-(3-hydroxynaphthalen-1-yl)-2-((tetrahydro-1H-pyrrolizin-7a(5H)-yl)methoxy)quinazolin-4-yl)-3,8-diazabicyclo[3.2.1]octan-8-yl)-4-oxobutanoic acid] | 0.0001 to 10 µM | 0.0001 to 10 µM | 0.0001 to 10 µM |
| O=C(N[C@H]1CC[C@H](O)C1)N1[C@@H]2CC[C@H]1CN(c1nc(OCC34CCCN3CCC4)nc3cc(-c4cc(O)cc5ccccc45)ccc13)C2 [P-0131, (1R,5S)-N-((1S,3S)-3-hydroxycyclopentyl)-3-(7-(3-hydroxynaphthalen-1-yl)-2-((tetrahydro-1H-pyrrolizin-7a(5H)-yl)methoxy)quinazolin-4-yl)-3,8-diazabicyclo[3.2.1]octane-8-carboxamide] | 0.0001 to 10 µM | 0.0001 to 10 µM | 0.0001 to 10 µM |
| O=C1CC(CC(=O)N2[C@@H]3CC[C@H]2CN(c2nc(OCC45CCCN4CCC5)nc4c(F)c(-c5cc(O)cc6ccccc56)ccc24)C3)C(=O)N1 (stereo partly drawn) [P-0356, 3-(2-((1R,5S)-3-(8-fluoro-7-(3-hydroxynaphthalen-1-yl)-2-((tetrahydro-1H-pyrrolizin-7a(5H)-yl)methoxy)quinazolin-4-yl)-3,8-diazabicyclo[3.2.1]octan-8-yl)-2-oxoethyl)pyrrolidine-2,5-dione] | 0.0001 to 10 µM | 0.0001 to 10 µM | 0.0001 to 10 µM |
| CN1CCC[C@H]1COc1nc(N2CC3CCC(C2)N3C(=O)Cc2ccc(N)cc2)c2ccc(-c3cc(O)cc4ccccc34)cc2n1 [P-0115] | 10 to 100 µM | 0.0001 to 10 µM | 0.0001 to 10 µM |
| CN1CCC[C@H]1COc1nc(N2C[C@H]3CC[C@@H](C2)N3)c2cc(CO)c(-c3cc(O)cc4ccccc34)c(F)c2n1 [P-0056, 4-[4-(3,8-diazabicyclo[3.2.1]octan-3-yl)-8-fluoro-6-(hydroxymethyl)-2-[[(2S)-1-methylpyrrolidin-2-yl]methoxy]quinazolin-7-yl]naphthalen-2-ol] | 0.0001 to 10 µM | 0.0001 to 10 µM | 0.0001 to 10 µM |
| N#CCC(=O)N1[C@@H]2CC[C@H]1CN(c1nc(OCC34CCCN3CCC4)nc3c(F)c(-c4cc(O)cc5ccccc45)ccc13)C2 [P-0354, 3-((1R,5S)-3-(8-fluoro-7-(3-hydroxynaphthalen-1-yl)-2-((tetrahydro-1H-pyrrolizin-7a(5H)-yl)methoxy)quinazolin-4-yl)-3,8-diazabicyclo[3.2.1]octan-8-yl)-3-oxopropanenitrile] | 0.0001 to 10 µM | 0.0001 to 10 µM | 0.0001 to 10 µM |
| Oc1cc(-c2ccc3c(N4C[C@H]5CC[C@@H](C4)N5)nc(OCC45CCCN4CCC5)nc3c2F)c2c(Cl)cccc2c1 [P-0136, 4-(4-((1R,5S)-3,8-diazabicyclo[3.2.1]octan-3-yl)-8-fluoro-2-((tetrahydro-1H-pyrrolizin-7a(5H)-yl)methoxy)quinazolin-7-yl)-5-chloronaphthalen-2-ol] | 0.0001 to 10 µM | 0.0001 to 10 µM | 0.0001 to 10 µM |
| O=C1NC(=O)[C@H](CC(=O)N2[C@@H]3CC[C@H]2CN(c2nc(OCC45CCCN4CCC5)nc4c(F)c(-c5cc(O)cc6ccccc56)ccc24)C3)N1 [P-0415, (S)-5-(2-((1R,5S)-3-(8-fluoro-7-(3-hydroxynaphthalen-1-yl)-2-((tetrahydro-1H-pyrrolizin-7a(5H)-yl)methoxy)quinazolin-4-yl)-3,8-diazabicyclo[3.2.1]octan-8-yl)-2-oxoethyl)imidazolidine-2,4-dione] | 0.0001 to 10 µM | 0.0001 to 10 µM | 0.0001 to 10 µM |
